Data from ChEMBL document CHEMBL1144896 (2003).

Key:
Assay type in all cases: functional
NCI-H1299 [1] = test: hTERT-SEAP (Human telomerase reverse transcriptase-SEAP) activity in non-small cell lung cancer H1299 cell at 30.0 uM concentration and level of cell viability determined in MTT assay
NCI-H1299 [2] = test: Compound was tested for human telomerase reverse transcriptase-SEAP (hTERT-SEAP) activity in non-small cell lung cancer H1299 cell at 3.0 uM concentration
BJ [3] = test: Compound was tested for human telomerase reverse transcriptase-SEAP (hTERT-SEAP) activity in immortalized hTERT-BJI at 30.0 uM concentration
NCI-H1299 [4] = test: hTERT-SEAP (Human telomerase reverse transcriptase-SEAP) activity in non-small cell lung cancer H1299 cell at 300.0 uM concentration and level of cell viability determined in MTT assay
NCI-H1299 [5] = test: Compound was tested for human telomerase reverse transcriptase-SEAP (hTERT-SEAP) activity in non-small cell lung cancer H1299 cell at 30.0 uM concentration
BJ [6] = test: hTERT-SEAP (Human telomerase reverse transcriptase-SEAP) activity in immortalized hTERT-BJI at 3.0 uM concentration and level of cell viability determined in MTT assay
BJ [7] = test: Compound was tested for human telomerase reverse transcriptase-SEAP (hTERT-SEAP) activity in immortalized hTERT-BJI at 300.0 uM concentration
BJ [8] = test: Compound was tested for human telomerase reverse transcriptase-SEAP (hTERT-SEAP) activity in immortalized hTERT-BJI at 3.0 uM concentration
BJ [9] = test: hTERT-SEAP (Human telomerase reverse transcriptase-SEAP) activity in immortalized hTERT-BJI at 30.0 uM concentration and level of cell viability determined in MTT assay
BJ [10] = test: hTERT-SEAP (Human telomerase reverse transcriptase-SEAP) activity in immortalized hTERT-BJI at 300.0 uM concentration and level of cell viability determined in MTT assay
NCI-H1299 [11] = test: Compound was tested for human telomerase reverse transcriptase-SEAP (hTERT-SEAP) activity in non-small cell lung cancer H1299 cell at 300.0 uM concentration
NCI-H1299 [12] = test: hTERT-SEAP (Human telomerase reverse transcriptase-SEAP) activity in non-small cell lung cancer H1299 cell at 3.0 uM concentration and level of cell viability determined in MTT assay
NCI-H1299 [13] = test: hTERT-SEAP (Human telomerase reverse transcriptase-SEAP) activity in non-small cell lung cancer H1299 cell at 240.0 uM concentration and level of cell viability determined in MTT assay
BJ [14] = test: Compound was tested for human telomerase reverse transcriptase-SEAP (hTERT-SEAP) activity in immortalized hTERT-BJI at 2.4 uM concentration
BJ [15] = test: Compound was tested for human telomerase reverse transcriptase-SEAP (hTERT-SEAP) activity in immortalized hTERT-BJI at 240.0 uM concentration
NCI-H1299 [16] = test: Compound was tested for human telomerase reverse transcriptase-SEAP (hTERT-SEAP) activity in non-small cell lung cancer H1299 cell at 240.0 uM concentration
BJ [17] = test: Compound was tested for human telomerase reverse transcriptase-SEAP (hTERT-SEAP) activity in immortalized hTERT-BJI at 24 uM concentration
NCI-H1299 [18] = test: hTERT-SEAP (Human telomerase reverse transcriptase-SEAP) activity in non-small cell lung cancer H1299 cell at 24 uM concentration and level of cell viability determined in MTT assay
NCI-H1299 [19] = test: hTERT-SEAP (Human telomerase reverse transcriptase-SEAP) activity in non-small cell lung cancer H1299 cell at 2.4 uM concentration and level of cell viability determined in MTT assay
NCI-H1299 [20] = test: Compound was tested for human telomerase reverse transcriptase-SEAP (hTERT-SEAP) activity in non-small cell lung cancer H1299 cell at 2.4 uM concentration
BJ [21] = test: hTERT-SEAP (Human telomerase reverse transcriptase-SEAP) activity in immortalized hTERT-BJI at 24 uM concentration and level of cell viability determined in MTT assay
BJ [22] = test: hTERT-SEAP (Human telomerase reverse transcriptase-SEAP) activity in immortalized hTERT-BJI at 240.0 uM concentration and level of cell viability determined in MTT assay
NCI-H1299 [23] = test: Compound was tested for human telomerase reverse transcriptase-SEAP (hTERT-SEAP) activity in non-small cell lung cancer H1299 cell at 24 uM concentration

CCSc1cccc2c1C(=O)c1cccc(SCC)c1C2=O
Relative viability (NCI-H1299 [1]): 44%
Relative SEAP activity (NCI-H1299 [2]): 134%
Relative SEAP activity (BJ [3]): 110%
Relative viability (NCI-H1299 [4]): 25%
Relative SEAP activity (NCI-H1299 [5]): 111%
Relative viability (BJ [6]): 112%
Relative SEAP activity (BJ [7]): 104%
Relative SEAP activity (BJ [8]): 109%
Relative viability (BJ [9]): 98%
Relative viability (BJ [10]): 34%
Relative SEAP activity (NCI-H1299 [11]): 99%
Relative viability (NCI-H1299 [12]): 111%

O=C1c2cccc(SCC(O)CO)c2C(=O)c2cccc(SCC(O)CO)c21 (stereo not drawn)
Relative viability (NCI-H1299 [13]): 83%
Relative SEAP activity (BJ [14]): 144%
Relative SEAP activity (BJ [15]): 142%
Relative SEAP activity (NCI-H1299 [16]): 81%
Relative SEAP activity (BJ [17]): 136%
Relative viability (NCI-H1299 [18]): 103%
Relative viability (NCI-H1299 [19]): 102%
Relative SEAP activity (NCI-H1299 [20]): 105%
Relative viability (BJ [21]): 86%
Relative viability (BJ [22]): 79%
Relative SEAP activity (NCI-H1299 [23]): 90%
